From patent US12139520B2 (priority 2020, dated 2024)
Bridge positions count the residues as written; N and C are the ends. Square brackets hold non-standard residues; d marks the D form. Peptide text beside a SMILES is read from it. Hyp = O=C(O)[C@@H]1C[C@@H](O)CN1

Tests used:
[1] = Physical stability of peptide analogues (Thioflavin T fibrillation); format: physicochemical; conditions: maximum ThT signal normalized between hAMY maximum and buffer background; 40° C., shaking, four days; pH 7 per table title
How it was run: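 1 h in 50 mM NaOAc pH 4 / 50 mM NaPi pH 7; + ThT 4 μM final; 40 °C, 700 rpm linear shake 5 min pre-read; ex 450, em 480 nm q10 min × 4 d; LOESS smoothing; max signal normalised to hAMY max vs buffer blank.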

hAMY3 receptor = target: T1, hAMY3 receptor (Homo sapiens, UniProt O60896+P30988); assay: cAMP assay for in vitro receptor activation, hAMY3-R; format: cell-based; conditions: cAMP assay, hAMY3 receptor; read-out: hAMY3R EC50
T1 sequence (P30988 25-474): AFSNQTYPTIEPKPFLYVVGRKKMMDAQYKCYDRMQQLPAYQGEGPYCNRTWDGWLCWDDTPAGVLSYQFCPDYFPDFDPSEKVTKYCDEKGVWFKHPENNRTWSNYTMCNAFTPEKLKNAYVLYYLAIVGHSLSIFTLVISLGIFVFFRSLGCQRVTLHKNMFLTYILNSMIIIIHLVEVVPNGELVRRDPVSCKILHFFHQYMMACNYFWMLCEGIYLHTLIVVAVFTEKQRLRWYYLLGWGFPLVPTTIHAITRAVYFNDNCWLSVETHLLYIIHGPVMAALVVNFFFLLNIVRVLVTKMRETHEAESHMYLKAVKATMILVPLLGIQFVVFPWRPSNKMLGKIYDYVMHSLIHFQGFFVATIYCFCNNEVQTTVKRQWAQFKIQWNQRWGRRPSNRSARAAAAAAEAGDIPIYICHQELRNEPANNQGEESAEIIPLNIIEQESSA
T1 sequence (O60896 24-148 partner): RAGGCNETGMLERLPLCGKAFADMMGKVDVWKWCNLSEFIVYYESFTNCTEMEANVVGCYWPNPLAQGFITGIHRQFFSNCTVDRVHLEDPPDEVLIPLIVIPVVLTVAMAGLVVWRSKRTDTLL
How it was run: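 Monoclonal cell line stably overexpressing human AMY3 receptor, 2000 cells/well in DPBS with 0.05% casein and 0.5 mM IBMX. Stimulated 30 min at room temperature with graded compound doses, human amylin as positive control. cAMP accumulation read by TR-FRET after one hour.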

Structure (SMILES) | Max ThT signal (%) [1] [%] | EC50 (hAMY3 receptor) [nM]
CC[C@H](C)[C@H](NC(=O)[C@H](CCC(N)=O)NC(=O)[C@H](Cc1c[nH]cn1)NC(=O)[C@H](C)NC(=O)[C@H](CC(C)C)NC(=O)[C@H](CCCNC(=N)N)NC(=O)[C@H](CCC(N)=O)NC(=O)[C@@H](NC(=O)[C@@H](NC(=O)[C@@H]1CSSC[C@H](NC(=O)CN)C(=O)N[C@@H](CCCNC(=N)N)C(=O)N[C@@H]([C@@H](C)O)C(=O)NCC(=O)N[C@@H]([C@@H](C)O)C(=O)N1)[C@@H](C)O)C(C)C)C(=O)N[C@@H](Cc1ccc(O)cc1)C(=O)N[C@@H](CCC(N)=O)C(=O)N[C@@H](Cc1ccccc1)C(=O)N[C@H](C(=O)N[C@@H](CC(=O)O)C(=O)N[C@@H](CCCCN)C(=O)N[C@@H](CC(=O)O)C(=O)N[C@@H](CCCCN)C(=O)N[C@@H](CC(=O)O)C(=O)N[C@@H](CC(N)=O)C(=O)N[C@H](C(=O)N[C@@H](C)C(=O)N1CCC[C@H]1C(=O)N[C@@H](CCCNC(=N)N)C(=O)N[C@@H](CO)C(=O)N[C@@H](CCCCN)C(=O)N[C@H](C(=O)NCC(=O)N1CCC[C@H]1C(=O)N[C@@H](CC(N)=O)C(=O)NCC(=O)N1C[C@H](O)C[C@H]1C(N)=O)C(C)C)C(C)C)[C@@H](C)O [compound 139] (H-GCRTGTCTVQRLAHQIYQFTDKDKDNVAPRSKVGPNG[Hyp]-NH2; disulfide 2-7; N-terminus assumed) | 4.800 | 0.035
CC[C@H](C)[C@H](NC(=O)[C@H](CCC(N)=O)NC(=O)[C@H](Cc1c[nH]cn1)NC(=O)[C@H](C)NC(=O)[C@H](CC(C)C)NC(=O)[C@H](CCCNC(=N)N)NC(=O)[C@H](CCC(N)=O)NC(=O)[C@@H](NC(=O)[C@@H](NC(=O)[C@@H]1CSSC[C@H](NC(=O)CN)C(=O)N[C@@H](CCCNC(=N)N)C(=O)N[C@@H](Cc2ccccc2)C(=O)NCC(=O)N[C@@H]([C@@H](C)O)C(=O)N1)[C@@H](C)O)C(C)C)C(=O)N[C@@H](Cc1ccc(O)cc1)C(=O)N[C@@H](CCC(N)=O)C(=O)N[C@@H](Cc1ccccc1)C(=O)N[C@H](C(=O)N[C@@H](CC(=O)O)C(=O)N[C@@H](CCCCN)C(=O)N[C@@H](CC(=O)O)C(=O)N[C@@H](CCCCN)C(=O)N[C@@H](CC(=O)O)C(=O)N[C@@H](CC(N)=O)C(=O)N[C@H](C(=O)N[C@@H](C)C(=O)N1CCC[C@H]1C(=O)N[C@@H](CCCNC(=N)N)C(=O)N[C@H](C(=O)N[C@@H](CC(N)=O)C(=O)N[C@H](C(=O)N[C@@H](CO)C(=O)N1CCC[C@H]1C(=O)N[C@@H](CCC(N)=O)C(=O)NCC(=O)N[C@@H](Cc1ccc(O)cc1)C(N)=O)[C@@H](C)CC)[C@@H](C)O)C(C)C)[C@@H](C)O [compound 140] (H-GCRFGTCTVQRLAHQIYQFTDKDKDNVAPRTNISPQGY-NH2; disulfide 2-7; N-terminus assumed) | 3.100 | 0.036
CC[C@H](C)[C@H](NC(=O)[C@H](CCC(N)=O)NC(=O)[C@H](Cc1c[nH]cn1)NC(=O)[C@H](C)NC(=O)[C@H](CC(C)C)NC(=O)[C@H](CCCNC(=N)N)NC(=O)[C@H](CCC(N)=O)NC(=O)[C@@H](NC(=O)[C@@H](NC(=O)[C@@H]1CSSC[C@H](NC(=O)CN)C(=O)N[C@@H](CCCNC(=N)N)C(=O)N[C@@H](Cc2ccccc2)C(=O)NCC(=O)N[C@@H]([C@@H](C)O)C(=O)N1)[C@@H](C)O)C(C)C)C(=O)N[C@@H](Cc1ccc(O)cc1)C(=O)N[C@@H](CCC(N)=O)C(=O)N[C@@H](Cc1ccccc1)C(=O)N[C@H](C(=O)N[C@@H](CC(=O)O)C(=O)N[C@@H](CCCCN)C(=O)N[C@@H](CC(=O)O)C(=O)N[C@@H](CCCCN)C(=O)N[C@@H](CC(=O)O)C(=O)N[C@@H](CC(N)=O)C(=O)N[C@H](C(=O)N[C@@H](C)C(=O)N1CCC[C@H]1C(=O)N[C@@H](CCCNC(=N)N)C(=O)N[C@H](C(=O)N[C@@H](CC(N)=O)C(=O)N[C@H](C(=O)N[C@@H](CO)C(=O)N1CCC[C@H]1C(=O)N[C@@H](CCC(N)=O)C(=O)NCC(=O)N1C[C@H](O)C[C@H]1C(N)=O)[C@@H](C)CC)[C@@H](C)O)C(C)C)[C@@H](C)O [compound 141] (H-GCRFGTCTVQRLAHQIYQFTDKDKDNVAPRTNISPQG[Hyp]-NH2; disulfide 2-7; N-terminus assumed) | 3.200 | 0.036
CC[C@H](C)[C@H](NC(=O)[C@H](CCC(N)=O)NC(=O)[C@H](Cc1c[nH]cn1)NC(=O)[C@H](C)NC(=O)[C@H](CC(C)C)NC(=O)[C@H](CCCNC(=N)N)NC(=O)[C@H](CCC(N)=O)NC(=O)[C@@H](NC(=O)[C@@H](NC(=O)[C@@H]1CSSC[C@H](NC(=O)CN)C(=O)N[C@@H](CCCNC(=N)N)C(=O)N[C@@H]([C@@H](C)O)C(=O)NCC(=O)N[C@@H]([C@@H](C)O)C(=O)N1)[C@@H](C)O)C(C)C)C(=O)N[C@@H](Cc1ccc(O)cc1)C(=O)N[C@@H](CCC(N)=O)C(=O)N[C@@H](Cc1ccccc1)C(=O)N[C@H](C(=O)N[C@@H](CC(=O)O)C(=O)N[C@@H](CCCCN)C(=O)N[C@@H](CC(=O)O)C(=O)N[C@@H](CCCCN)C(=O)N[C@@H](CC(=O)O)C(=O)N[C@@H](CC(N)=O)C(=O)N[C@H](C(=O)N[C@@H](C)C(=O)N1CCC[C@H]1C(=O)N[C@@H](CCCNC(=N)N)C(=O)N[C@H](C(=O)N[C@@H](CCCCN)C(=O)N[C@H](C(=O)NCC(=O)N1CCC[C@H]1C(=O)N[C@@H](CCC(N)=O)C(=O)NCC(=O)N1C[C@H](O)C[C@H]1C(N)=O)C(C)C)[C@@H](C)O)C(C)C)[C@@H](C)O [compound 143] (H-GCRTGTCTVQRLAHQIYQFTDKDKDNVAPRTKVGPQG[Hyp]-NH2; disulfide 2-7; N-terminus assumed) | 2.200 | 0.038
CC[C@H](C)[C@H](NC(=O)[C@H](CCC(N)=O)NC(=O)[C@H](Cc1c[nH]cn1)NC(=O)[C@H](C)NC(=O)[C@H](CC(C)C)NC(=O)[C@H](CCCNC(=N)N)NC(=O)[C@H](CCC(N)=O)NC(=O)[C@@H](NC(=O)[C@@H](NC(=O)[C@@H]1CSSC[C@H](NC(=O)CN)C(=O)N[C@@H](CCCNC(=N)N)C(=O)N[C@@H](Cc2ccccc2)C(=O)NCC(=O)N[C@@H]([C@@H](C)O)C(=O)N1)[C@@H](C)O)C(C)C)C(=O)N[C@@H](Cc1ccc(O)cc1)C(=O)N[C@@H](CCC(N)=O)C(=O)N[C@@H](Cc1ccccc1)C(=O)N[C@H](C(=O)N[C@@H](CC(=O)O)C(=O)N[C@@H](CCCCN)C(=O)N[C@@H](CC(=O)O)C(=O)N[C@@H](CCCCN)C(=O)N[C@@H](CC(=O)O)C(=O)N[C@@H](CC(N)=O)C(=O)N[C@H](C(=O)N[C@@H](C)C(=O)N1CCC[C@H]1C(=O)N[C@@H](CCCNC(=N)N)C(=O)N[C@@H](CO)C(=O)N[C@@H](CC(N)=O)C(=O)N[C@H](C(=O)N[C@@H](CO)C(=O)N1CCC[C@H]1C(=O)N[C@@H](CCC(N)=O)C(=O)NCC(=O)N1C[C@H](O)C[C@H]1C(N)=O)C(C)C)C(C)C)[C@@H](C)O [compound 145] (H-GCRFGTCTVQRLAHQIYQFTDKDKDNVAPRSNVSPQG[Hyp]-NH2; disulfide 2-7; N-terminus assumed) | 2.000 | 0.039
CC[C@H](C)[C@H](NC(=O)[C@H](CCC(N)=O)NC(=O)[C@H](Cc1c[nH]cn1)NC(=O)[C@H](C)NC(=O)[C@H](CC(C)C)NC(=O)[C@H](CCCNC(=N)N)NC(=O)[C@H](CCC(N)=O)NC(=O)[C@@H](NC(=O)[C@@H](NC(=O)[C@@H]1CSSC[C@H](NC(=O)CN)C(=O)N[C@@H](CCCNC(=N)N)C(=O)N[C@@H](Cc2ccccc2)C(=O)NCC(=O)N[C@@H]([C@@H](C)O)C(=O)N1)[C@@H](C)O)C(C)C)C(=O)N[C@@H](Cc1ccc(O)cc1)C(=O)N[C@@H](CCC(N)=O)C(=O)N[C@@H](Cc1ccccc1)C(=O)N[C@H](C(=O)N[C@@H](CC(=O)O)C(=O)N[C@@H](CCCCN)C(=O)N[C@@H](CC(=O)O)C(=O)N[C@@H](CCCCN)C(=O)N[C@@H](CC(=O)O)C(=O)N[C@@H](CC(N)=O)C(=O)N[C@H](C(=O)N[C@@H](C)C(=O)N1CCC[C@H]1C(=O)N[C@@H](CCCNC(=N)N)C(=O)N[C@H](C(=O)N[C@@H](CCCCN)C(=O)N[C@H](C(=O)N[C@@H](CO)C(=O)N1CCC[C@H]1C(=O)N[C@@H](CCC(N)=O)C(=O)NCC(=O)N1C[C@H](O)C[C@H]1C(N)=O)[C@@H](C)CC)[C@@H](C)O)C(C)C)[C@@H](C)O [compound 146] (H-GCRFGTCTVQRLAHQIYQFTDKDKDNVAPRTKISPQG[Hyp]-NH2; disulfide 2-7; N-terminus assumed) | 3.600 | 0.04
